Assay results from PubChem BioAssay (NCI).
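How tested: cells in 96-well plates exposed to compound for 48 hours at five concentrations. TGI: concentration producing complete growth inhibition.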

Key:
Assay in all cases: inhibition of tumour cell growth, NCI panel, 48 h
786-0 renal = system: 786-0 renal
A498 renal = system: A498 renal
A549 NSCLC = system: A549 NSCLC
ACHN renal = system: ACHN renal
CAKI-1 renal = system: CAKI-1 renal
CCRF-CEM leukemia = system: CCRF-CEM leukemia
COLO 205 colon = system: COLO 205 colon
DLD-1 colon = system: DLD-1 colon
DMS 114 small cell lung = system: DMS 114 small cell lung
DMS 273 small cell lung = system: DMS 273 small cell lung
HCC-2998 colon = system: HCC-2998 colon
HCT-116 colon = system: HCT-116 colon
HCT-15 colon = system: HCT-15 colon
HL-60(TB) leukemia = system: HL-60(TB) leukemia
HOP-18 NSCLC = system: HOP-18 NSCLC
HOP-62 NSCLC = system: HOP-62 NSCLC
HOP-92 NSCLC = system: HOP-92 NSCLC
HT29 colon = system: HT29 colon
IGROV1 ovarian = system: IGROV1 ovarian
K-562 leukemia = system: K-562 leukemia
KM12 colon = system: KM12 colon
KM20L2 colon = system: KM20L2 colon
LOX IMVI melanoma = system: LOX IMVI melanoma
LXFL 529 NSCLC = system: LXFL 529 NSCLC
M14 melanoma = system: M14 melanoma
M19-MEL melanoma = system: M19-MEL melanoma
MALME-3M melanoma = system: MALME-3M melanoma
MOLT-4 leukemia = system: MOLT-4 leukemia
NCI-H226 lung = system: NCI-H226 lung
NCI-H23 lung = system: NCI-H23 lung
NCI-H460 lung = system: NCI-H460 lung
NCI-H522 lung = system: NCI-H522 lung
OVCAR-3 ovarian = system: OVCAR-3 ovarian
OVCAR-4 ovarian = system: OVCAR-4 ovarian
OVCAR-5 ovarian = system: OVCAR-5 ovarian
OVCAR-8 ovarian = system: OVCAR-8 ovarian
RPMI-8226 leukemia = system: RPMI-8226 leukemia
RXF-631 renal = system: RXF-631 renal
SF-268 CNS = system: SF-268 CNS
SF-295 CNS = system: SF-295 CNS
SF-539 CNS = system: SF-539 CNS
SK-MEL-2 melanoma = system: SK-MEL-2 melanoma
SK-MEL-28 melanoma = system: SK-MEL-28 melanoma
SK-MEL-5 melanoma = system: SK-MEL-5 melanoma
SK-OV-3 ovarian = system: SK-OV-3 ovarian
SN12C renal = system: SN12C renal
SNB-19 CNS = system: SNB-19 CNS
SNB-75 CNS = system: SNB-75 CNS
SR leukemia = system: SR leukemia
SW-620 colon = system: SW-620 colon
TK-10 renal = system: TK-10 renal
U251 CNS = system: U251 CNS
UACC-257 melanoma = system: UACC-257 melanoma
UACC-62 melanoma = system: UACC-62 melanoma
UO-31 renal = system: UO-31 renal
XF 498 CNS = system: XF 498 CNS
EKVX NSCLC = system: EKVX NSCLC
RXF 393 renal = system: RXF 393 renal
SNB-78 CNS = system: SNB-78 CNS

In the case of CC12C/C(=C\c3ccccc3)C(=O)C3C1CCCC32, the TGI (786-0 renal) is reported as > 100 µM, the TGI (A498 renal) is reported as > 100 µM and the TGI (A549 NSCLC) is reported as > 100 µM. The TGI (ACHN renal) was > 100 µM, the TGI (CAKI-1 renal) was > 100 µM and the TGI (CCRF-CEM leukemia) was > 100 µM. For the same compound, the TGI (COLO 205 colon) was > 100 µM, the TGI (DLD-1 colon) was > 100 µM and the TGI (DMS 114 small cell lung) was > 100 µM. For the same compound, the TGI (DMS 273 small cell lung) was > 100 µM, the TGI (HCC-2998 colon) was > 100 µM and the TGI (HCT-116 colon) was > 100 µM. For the same compound, the TGI (HCT-15 colon) was > 100 µM, the TGI (HL-60(TB) leukemia) was 55.6 µM and the TGI (HOP-18 NSCLC) was > 100 µM. The TGI (HOP-62 NSCLC) was > 100 µM, the TGI (HOP-92 NSCLC) was > 100 µM and the TGI (HT29 colon) was > 100 µM. For the same compound, the TGI (IGROV1 ovarian) was > 100 µM, the TGI (K-562 leukemia) was > 100 µM and the TGI (KM12 colon) was > 100 µM. For the same compound, the TGI (KM20L2 colon) was > 100 µM, the TGI (LOX IMVI melanoma) was > 100 µM and the TGI (LXFL 529 NSCLC) was > 100 µM. The TGI (M14 melanoma) was > 100 µM, the TGI (M19-MEL melanoma) was > 100 µM and the TGI (MALME-3M melanoma) was > 100 µM. The TGI (MOLT-4 leukemia) was 53.1 µM, the TGI (NCI-H226 lung) was > 100 µM and the TGI (NCI-H23 lung) was > 100 µM. The TGI (NCI-H460 lung) was > 100 µM, the TGI (NCI-H522 lung) was > 100 µM and the TGI (OVCAR-3 ovarian) was > 100 µM. For the same compound, the TGI (OVCAR-4 ovarian) was > 100 µM, the TGI (OVCAR-5 ovarian) was > 100 µM and the TGI (OVCAR-8 ovarian) was > 100 µM. The TGI (RPMI-8226 leukemia) was > 100 µM, the TGI (RXF-631 renal) was > 100 µM and the TGI (SF-268 CNS) was > 100 µM. For the same compound, the TGI (SF-295 CNS) was > 100 µM, the TGI (SF-539 CNS) was > 100 µM and the TGI (SK-MEL-2 melanoma) was > 100 µM. For the same compound, the TGI (SK-MEL-28 melanoma) was > 100 µM, the TGI (SK-MEL-5 melanoma) was > 100 µM and the TGI (SK-OV-3 ovarian) was > 100 µM. The TGI (SN12C renal) was > 100 µM, the TGI (SNB-19 CNS) was > 100 µM and the TGI (SNB-75 CNS) was > 100 µM. The TGI (SR leukemia) was > 100 µM, the TGI (SW-620 colon) was > 100 µM and the TGI (TK-10 renal) was > 100 µM. The TGI (U251 CNS) was > 100 µM, the TGI (UACC-257 melanoma) was > 100 µM and the TGI (UACC-62 melanoma) was > 100 µM. The TGI (UO-31 renal) was > 100 µM and the TGI (XF 498 CNS) was > 100 µM.

With CC(C)N(C(=O)C12C3C4C1C1C4(C#N)C3C12C#N)C(C)C (stereo unspecified) the TGI (786-0 renal) was > 100 µM, the TGI (A498 renal) was > 100 µM and the TGI (A549 NSCLC) was > 100 µM. For the same compound, the TGI (ACHN renal) was > 100 µM, the TGI (CAKI-1 renal) was > 100 µM and the TGI (CCRF-CEM leukemia) was > 100 µM. The TGI (COLO 205 colon) was > 100 µM, the TGI (DLD-1 colon) was > 100 µM and the TGI (DMS 114 small cell lung) was > 100 µM. The TGI (EKVX NSCLC) was > 100 µM, the TGI (HCC-2998 colon) was > 100 µM and the TGI (HCT-15 colon) was > 100 µM. The TGI (HOP-18 NSCLC) was > 100 µM, the TGI (HOP-62 NSCLC) was > 100 µM and the TGI (HOP-92 NSCLC) was > 100 µM. The TGI (HT29 colon) was > 100 µM, the TGI (IGROV1 ovarian) was > 100 µM and the TGI (K-562 leukemia) was > 100 µM. For the same compound, the TGI (KM20L2 colon) was > 100 µM, the TGI (LXFL 529 NSCLC) was > 100 µM and the TGI (M14 melanoma) was > 100 µM. The TGI (M19-MEL melanoma) was > 100 µM, the TGI (MALME-3M melanoma) was > 100 µM and the TGI (MOLT-4 leukemia) was > 100 µM. The TGI (NCI-H226 lung) was > 100 µM, the TGI (NCI-H23 lung) was > 100 µM and the TGI (NCI-H460 lung) was > 100 µM. For the same compound, the TGI (OVCAR-3 ovarian) was > 100 µM, the TGI (OVCAR-4 ovarian) was > 100 µM and the TGI (OVCAR-5 ovarian) was > 100 µM. For the same compound, the TGI (OVCAR-8 ovarian) was > 100 µM, the TGI (RPMI-8226 leukemia) was > 100 µM and the TGI (RXF 393 renal) was > 100 µM. The TGI (RXF-631 renal) was > 100 µM, the TGI (SF-268 CNS) was > 100 µM and the TGI (SF-295 CNS) was > 100 µM. For the same compound, the TGI (SF-539 CNS) was > 100 µM, the TGI (SK-MEL-28 melanoma) was > 100 µM and the TGI (SK-MEL-5 melanoma) was > 100 µM. The TGI (SK-OV-3 ovarian) was > 100 µM, the TGI (SN12C renal) was > 100 µM and the TGI (SNB-19 CNS) was > 100 µM. For the same compound, the TGI (SNB-78 CNS) was > 100 µM, the TGI (SW-620 colon) was > 100 µM and the TGI (TK-10 renal) was > 100 µM. For the same compound, the TGI (U251 CNS) was > 100 µM, the TGI (UACC-257 melanoma) was > 100 µM and the TGI (UACC-62 melanoma) was > 100 µM. For the same compound, the TGI (UO-31 renal) was > 100 µM and the TGI (XF 498 CNS) was > 100 µM.
